Measurements from patent US8105581B2, “Compositions and methods for inducing neuronal differentiation” (The Scripps Research Institute, priority 2005, dated 2012).
“Also recorded” adds a separate entry of the source.

Tests used:
Assay type in all cases: cell-based, rat
[1] = system: HCN cells (adult hippocampal neural progenitor cells); experiment: Neuronal and astroglial differentiation of HCN cells by TuJ1/GFAP double-immunofluorescence staining; details: for Relative activity at ECmax: ECmax relative to Compound A, compound 2 (100) and DMSO (0 or no active, N/A), AP = Anti-proliferation
Procedure: Cell Culture: Neural precursor cells isolated from the hippocampus of adult female Fischer 344 rats^(1) were maintained in N2 supplemented (Invitrogen) DMEM: Ham's F12 (Omega scientific) medium containing 20 ng/mL FGF-2 (PeproTech Inc.) HCN cells were expanded and maintained in an undifferentiated state on a polyornithine/laminin-coated dish in a defined serum-free growth medium (DMEM/F12 supplemented with N2 and 20 ng/ml bFGF) in a homogeneous monolayer. Neuronal and astroglial differentiation was analyzed directly with double-immunofluorescence staining of βIII tubulin (TuJ1) as a neuronal marker and glial fibrillary acidic protein (GFAP) as an astroglial marker. A combinatorial heterocycle library of 50,000 compounds was screened using undifferentiated, early passage HCN cells plated onto polyornithine/lamin-coated 384-well plates at a density of 6,000 cells/well in complete growth medium. After overnight incubation, the medium was exchanged with bFGF-free basal medium, and 5 μM of the compounds (final concentration) were added to each well. After treatment with compound for four days, cells were fixed and stained with βIII tubulin/TUJ1 and GFAP antibodies, the morphology of positively stained cells was analyzed, and the number of cells with the desired phenotypes was counted.
(§1) Immunocytochenzistry: Cells were fixed with 4% paraformaldehyde for 30 min and washed with PBS, and then blocked for 1 hour at room temperature in PBS containing 0.3% Triton X-100 and 5% donkey serum (PBS-B). Samples were incubated in PBS-B containing dilutions (1:1500) of two primary antibodies for 24 hrs at 4° C., washed three times with PBS, and incubated w secondary antibodies conjugated to Cy3 (Jackson ImmunoResearch Laboratories, Inc.) Alexa Fluor 488 (Molecular Probe Inc.). The samples then were treated with 1 μg/mL 4′,6-diamidino-2-phenylindole (DAPI) for 30 min at room temperature, and then washed three times with PBS.
A combinatorial heterocycle library of 50,000 compounds was screened using undifferentiated, early passage HCN cells plated onto polyornithine/lamin-coated 384-well plates at a density of 6,000 cells/well in complete growth medium. After overnight incubation, the medium was exchanged with bFGF-free basal medium, and 5 μM of the compounds (final concentration) were added to each well. After treatment with compound for four days, cells were fixed and stained with βIII tubulin/TUJ1 and GFAP antibodies, the morphology of positively stained cells was analyzed, and the number of cells with the desired phenotypes was counted.

[2] = system: HCN cells; experiment: Cytotoxic effects on HCN cells
[3] = system: NeuroD1; experiment: Semi-quantitative RT-PCR of marker genes: NeuroD1; details: HCN cells, 10 μM Compound A versus compound-free N2 medium
[4] = system: HCN cells; experiment: BrdU proliferation assay; details: HCN cells treated 5 hours in bFGF-free N2 medium; 15, 10, 5 μM Compound A or 1, 0.5, 0.25 μM RA; BrdU 2 hours
Procedure: BrdU proliferation assay: Cells were treated with compounds (Compound A and
(§2) RA). After 5 hours, the medium was changed and 10 μM of 5-bromo-2′-deoxy-uridine (BrdU) (final concentration) was added to each well. After treatment with BrdU for 2 hours, cells were fixed, washed three times with 01M Tris-buffer, and incubated in 2N HCl at 37° for 30 min. After treatment with 0.1M borate buffer (pH 8.5) for 10 min, cells were washed three times with PBS and treated with blocking buffer (PBS containing 0.3% Triton-X and 5% donkey serum) for 60 min. After overnight incubation with anti-BrdU (1:400) antibody, cells were washed with PBS and incubated with secondary antibody conjugated to Cy3 (1:1000) for 2 hours. After washing with PBS, BrdU-positive cells were counted.

[5] = system: HCN cells; experiment: Astroglial differentiation of HCN cells induced by LIF/BMP2/FBS; details: 50 ng/ml LIF, 50 ng/ml BMP2 and 0.5% FBS; compound A 20 μM, RA 5 μM; listed as Compound A
[6] = system: NeuroD1 and NeuN; experiment: BrdU labeling with immunocytochemistry to detect NeuroD1 and NeuN; details: HCN cells (FIG. 4)
Procedure: as §1, §2

[7] = system: Sox2; experiment: Semi-quantitative RT-PCR of marker genes: Sox2; details: HCN cells, 10 μM Compound A versus compound-free N2 medium
[8] = HCN cells treated with Compound A

Molecule	Relative activity at ECmax [1]	cytotoxicity ([2]; over 2 μM in growth factor (bFGF or LIF/BMP2)-free basal medium)	NeuroD1 (neuronal cell marker) mRNA level [3]	cell proliferation (BrdU-positive cells) [4]	visible cytotoxic effects [2, 8]	inhibition of astroglial differentiation induced by LIF and BMP2 [5]	expression of neuron-specific marker genes NeuroD1 and NeuN [6]	cells differentiated into neuronal cells (immunostaining with TuJ1 and characteristic neuronal morphology) [1, 8]	neuronal differentiation-inducing activity (screen and sublibrary) ([1]; HCN cells, bFGF-free basal medium, four days)	lineage specificity: GFAP-positive (astroglial) versus neuronal cells after treatment ([1]; four days in N2 media, 10 μM Compound A or 2 μM RA (FIG. 2))	staining for later stage neuronal markers neurofilament-H and Map2(a+b) ([1]; seven days of treatment with 10 μM Compound A)	Sox2 (neural progenitor marker) mRNA level [7]
ethyl 4-(2-phenylthiazol-4-ylamino) benzoate [Compound 1]	10	–	–	–	–	–	–	–	–	–	–	–
CC1=C(/C=C/C(C)=C/C=C/C(C)=C/C(=O)O)C(C)(C)CCC1 [RA, retinoic acid, reference compound]	–	significant cytotoxicity	–	–	–	–	–	–	–	–	–	–
CCOC(=O)c1ccc(N(C)c2csc(-c3ccccc3)n2)cc1 [Compound 2]	100	–	up-regulated	significantly slowed cell proliferation	without visible cytotoxic effects	can also inhibit astroglial differentiation; also recorded: can competitively suppress astrogliogenesis by LIF/BMP2/FBS in a dose-dependent manner	induces expression of neuron-specific marker genes	more than 90%	highest activity among the analogues tested	GFAP-positive cells were very rarely detected	positive staining	down-regulated
